This is an account of results in ChEMBL document CHEMBL1127867, “5-Membered ring heterocyclic carboxylic acids as angiotensin II antagonists” (Bioorg Med Chem Lett, 1994).

This assay has as its target Angiotensin II receptor (Oryctolagus cuniculus). The experiment in a line: Tested in vitro for angiotensin II induced antagonistic activity in rabbit aorta, expressed as pA2.
For the molecule `CCCN(Cc1ccc(-c2ccccc2-c2nn[nH]n2)cc1)c1nn(C)cc1C(=O)O`, the pA2 was determined as 7.94.
The molecule `CCCCN(Cc1ccc(-c2ccccc2-c2nn[nH]n2)cc1)c1c(C(=O)O)ncn1C` yielded a pA2 of 6.46.
Turning to `CCCc1nc(N(CCC)Cc2ccc(-c3ccccc3-c3nn[nH]n3)cc2)sc1C(=O)O`, the pA2 was 7.43.
For `CCCN(Cc1ccc(-c2ccccc2-c2nn[nH]n2)cc1)c1nsnc1C(=O)O`, the pA2 came out at 9.
As for `CCCN(Cc1ccc(-c2ccccc2-c2nn[nH]n2)cc1)c1ncc(C(=O)O)s1`, the pA2 was determined as 7.87.
`CCCN(Cc1ccc(-c2ccccc2-c2nn[nH]n2)cc1)c1nc(C(F)(F)F)c(C(=O)O)s1` yielded a pA2 of 7.56.
In the case of `CCCCN(Cc1ccc(-c2ccccc2-c2nn[nH]n2)cc1)c1snnc1C(=O)O`, the pA2 was 8.36.
Molecule `CCCCN(Cc1ccc(-c2ccccc2-c2nn[nH]n2)cc1)c1scnc1C(=O)O` registered a pA2 of 8.2.
`CCCCCCN(Cc1ccc(-c2ccccc2-c2nn[nH]n2)cc1)c1ncc(C(=O)O)s1` came in with a pA2 of 7.34.
Regarding `CCCN(Cc1ccc(-c2ccccc2-c2nn[nH]n2)cc1)c1nc(C)c(C(=O)O)s1`, the pA2 is on record as 8.63.
In turn, `CCCCN(Cc1ccc(-c2ccccc2-c2nn[nH]n2)cc1)c1nnn(CCCC)c1C(=O)O` showed a pA2 of 8.86.
Molecule `CCCCN(Cc1ccc(-c2ccccc2-c2nn[nH]n2)cc1)c1ncc(C(=O)O)s1` registered a pA2 of 8.8.
In turn, `CCCCN(Cc1ccc(-c2ccccc2-c2nn[nH]n2)cc1)c1nnn(C)c1C(=O)O` had a pA2 of 8.6.
The figure for `CCCc1nc(NCc2ccc(-c3ccccc3-c3nn[nH]n3)cc2)sc1C(=O)O` is less than 6.
On to `CCCCN(Cc1ccc(-c2ccccc2-c2nn[nH]n2)cc1)c1c(C(=O)O)cnn1C`, for which the pA2 is reported as less than 7.
As for `O=C(O)c1cnc(NCc2ccc(-c3ccccc3-c3nn[nH]n3)cc2)s1`, the pA2 is listed as less than 6.
